Experimental data published in patent US9518038B2, “Condensation product of theanine derivative and carboxylic acid coumarin derivative, its intermediate, preparation method and use thereof” (SHANDONG YINGDONG YINGHAO BIOTECHNOLOGY, INC., priority 2012, dated 2016).

How the values were obtained:
[1] = system: human neuroma cells D54; experiment: MTT growth inhibition, D54 cells; type: cell-based; details: Homo sapiens, 72 h after treatment, read-out: Drug concentration (IC50) at which 50% cancer cells survived
From the text: (§1) Cell lines and cell culture: human lung cancer cells A549 and H460, human breast cancer cells MCF-7 and MDA-MB-231, human gastric cancer cells BGC-823, human prostate cancer cells PC-3, human chronic leukemia cells K562, human lymphoma cells U937, human liver cancer cells SMMC7721 and HepG2, human colon cancer cells HT29, human pancreatic cancer cells PANC-1 and BxPC3, human cervical cancer Hela cell lines, human brain tumor cells Daoy, human neuroma cells D54 and human oral epidermoid cancer cells KBV200 line with strong drug resistance, mouse melanoma cells B16, and highly metastatic Lewis lung cancer cell lines were purchased from American Type Culture Collection of the U.S. These cells were cultured with DMEM and RPMI-1640 culture solutions separately.
(§2) The procedure was as follows:
(§3) (1) 0.25% trypsin was used to digest cancer cells in a logarithmic growth phase to prepare a single-cell suspension, the concentration of cells was adjusted to 5×10^4/mL, and the adjusted suspension was inoculated into a 96-well culture plate with 100 μl per well;
(§4) (2) The culture plate was transferred into a 37° C. incubator with a saturated humidity and 5% of CO2 and cultured for 24 h; the compounds and the intermediates thereof obtained in embodiments 1-7 and the compound as represented by formula (IIIa) or the positive control anti-cancer drug with the concentration of 1-1000 μM/L were added to enable the final concentration to be 0.1-1500 μM/L. Control wells (only added with 200 μl of cell suspension) and drug-free blank control wells (containing the solvent of 0.01% DMSO) were set, each group included 8 wells, and the plate was placed into the 37° C. incubator with saturated humidity and 5% of CO2 for culturing;
(§5) (3) The 96-well plate was taken out at 48 h and 72 h after dosing, the original culture medium was carefully removed by suction, 100 μl of serum-free DMEM culture medium and 10 μl of MTT (5 mg/mL) solution were added in each well. The plate was continuously cultured for another 4 h and then the culture was terminated;
(§6) (4) The supernatant in the wells was carefully removed by suction, each well was added with 150 μl of DMSO and shaked at room temperature for 10-15 min to fully dissolve crystals.
(§7) (5) Colorimetric analysis: the wavelength was selected as 570 nm, the light absorbance (A value) of each well was determined on the microplate reader and the results were recorded; the experiment was repeated for three times;
(§8) (6) the experimental results were calculated according to the following formula: relative survival rate=(A value of each experimental group/A value of cell control group)×100%
(§9) Calculation of median-effect concentration (IC50, namely the drug concentration at which the inhibition rate is 50%, also known as half inhibitory concentration):
(§10) IC50 of the detected component was calculated by using a regression equation.

[2] = system: human breast cancer cells MDA-MB231 xenograft; experiment: In-vivo growth of MDA-MB231 xenografts in nude mice; parameters: species or system BALB/c nude mice; details: Mus musculus, MDA-MB-231, ip, MB-231 xenograft, vs DMSO solvent control, read-out: Curative effect (inhibition rate %) of tumor weight; for inhibition in vivo at 60 mg/kg: 60 mg/kg intraperitoneal once a day; for inhibition in vivo at 90 mg/kg: 90 mg/kg intraperitoneal once a day
Experimental: (§11) RPMI1640 and DMEM culture solutions: Hyclone Company; inactivated fetal bovine serum: Hyclone Company, preserved at −20° C.; trypsin: Amersco Company; and 0.4% trypan blue: Sigma Company;
(§12) (3) Observation of growth of tumors in nude mice: the activities (including food intake, traits of urine and stool, mental state and the like) of the nude mice and the tumor growth time and growth situation of the transplanted tumors were observed every day, the body weight and the size of the tumors were measured once every 2-3 days. The long diameter a and the short diameter b (mm) of each tumor were measured by a vernier caliper to calculate the volume, wherein the volume V=π1/2·ab^2 (mm^3);
(§13) (4) sacrifice of animals: the mice were anesthetized and photoed after treatment experiments; the nude mice were sacrificed by breaking neck, the tumor tissues were stripped under sterile conditions and the weight of the tumors was weighed; and the effects of the drugs on pathology and toxicity of the various organs and tissues were detected.

[3] = system: human breast cancer cells MDA-MB-231; experiment: MTT growth inhibition, MDA-MB-231 cells; type: cell-based; details: 72 h after treatment, read-out: Drug concentration (IC50) at which 50% cancer cells survived
From the text: as §1, §2, §3, §4, §5, §6, §7, §8, §9, §10

[4] = system: Lewis lung cancer (highly metastatic mouse lung cancer) cells; experiment: Mouse Lewis lung cancer metastasis model; type: in vivo, C57/BL6J black mice; details: Lewis lung carcinoma, ip, LLC, vs DMSO solvent control, read-out: tumor lung metastasis inhibition rate % of mouse Lewis lung cancer; for inhibition in vivo at 60 mg/kg: 60 mg/kg intraperitoneal once a day; for inhibition in vivo at 90 mg/kg: 90 mg/kg intraperitoneal once a day
Experimental: as §11, §13

[5] = biological target: T1, EZH2 (Homo sapiens, UniProt Q15910); experiment: EZH2 enzyme activity in protein extracts of human tumor xenografts of treated mice (EZH2 Assay Kit); type: in vivo; details: tumors excised 6 h after medication, SAHA 25 mg/kg
T1 construct: the EZH2 enzyme was replaced with tumor protein extracts in each group; from tissue; host or cells: human tumour xenografts excised from treated nude mice
T1 sequence (Q15910 whole entry): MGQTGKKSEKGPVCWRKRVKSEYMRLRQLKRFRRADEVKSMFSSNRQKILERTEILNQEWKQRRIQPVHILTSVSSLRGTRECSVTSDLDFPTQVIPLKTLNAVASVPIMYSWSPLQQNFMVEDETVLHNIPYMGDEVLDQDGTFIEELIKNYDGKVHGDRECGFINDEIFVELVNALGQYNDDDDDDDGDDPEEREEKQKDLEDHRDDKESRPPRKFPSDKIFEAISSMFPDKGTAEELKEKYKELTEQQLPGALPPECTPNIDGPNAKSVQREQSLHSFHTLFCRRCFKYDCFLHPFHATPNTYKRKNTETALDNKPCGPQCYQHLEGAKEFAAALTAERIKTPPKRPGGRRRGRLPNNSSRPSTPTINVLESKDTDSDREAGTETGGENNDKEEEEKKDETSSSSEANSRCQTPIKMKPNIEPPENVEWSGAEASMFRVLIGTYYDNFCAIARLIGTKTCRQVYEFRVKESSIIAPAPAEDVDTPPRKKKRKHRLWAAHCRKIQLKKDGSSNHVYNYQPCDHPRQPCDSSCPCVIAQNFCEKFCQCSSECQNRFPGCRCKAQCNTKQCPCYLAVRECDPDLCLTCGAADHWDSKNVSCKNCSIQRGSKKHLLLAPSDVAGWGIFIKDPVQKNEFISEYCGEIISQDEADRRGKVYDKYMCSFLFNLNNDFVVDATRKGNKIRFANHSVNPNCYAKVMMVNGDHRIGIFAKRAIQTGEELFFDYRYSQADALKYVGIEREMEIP
T1 sequence (O75530 whole entry partner): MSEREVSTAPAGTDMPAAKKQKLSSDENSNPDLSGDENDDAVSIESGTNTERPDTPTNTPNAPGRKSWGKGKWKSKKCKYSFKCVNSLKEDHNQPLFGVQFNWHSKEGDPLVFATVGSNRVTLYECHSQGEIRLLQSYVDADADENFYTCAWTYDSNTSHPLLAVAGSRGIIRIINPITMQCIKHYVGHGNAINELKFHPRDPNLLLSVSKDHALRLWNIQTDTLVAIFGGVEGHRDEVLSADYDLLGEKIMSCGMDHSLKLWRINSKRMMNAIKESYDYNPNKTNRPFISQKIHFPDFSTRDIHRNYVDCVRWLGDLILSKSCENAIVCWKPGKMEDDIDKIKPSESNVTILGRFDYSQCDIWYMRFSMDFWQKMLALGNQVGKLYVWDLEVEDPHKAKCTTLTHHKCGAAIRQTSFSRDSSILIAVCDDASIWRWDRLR
T1 sequence (Q15022 whole entry partner): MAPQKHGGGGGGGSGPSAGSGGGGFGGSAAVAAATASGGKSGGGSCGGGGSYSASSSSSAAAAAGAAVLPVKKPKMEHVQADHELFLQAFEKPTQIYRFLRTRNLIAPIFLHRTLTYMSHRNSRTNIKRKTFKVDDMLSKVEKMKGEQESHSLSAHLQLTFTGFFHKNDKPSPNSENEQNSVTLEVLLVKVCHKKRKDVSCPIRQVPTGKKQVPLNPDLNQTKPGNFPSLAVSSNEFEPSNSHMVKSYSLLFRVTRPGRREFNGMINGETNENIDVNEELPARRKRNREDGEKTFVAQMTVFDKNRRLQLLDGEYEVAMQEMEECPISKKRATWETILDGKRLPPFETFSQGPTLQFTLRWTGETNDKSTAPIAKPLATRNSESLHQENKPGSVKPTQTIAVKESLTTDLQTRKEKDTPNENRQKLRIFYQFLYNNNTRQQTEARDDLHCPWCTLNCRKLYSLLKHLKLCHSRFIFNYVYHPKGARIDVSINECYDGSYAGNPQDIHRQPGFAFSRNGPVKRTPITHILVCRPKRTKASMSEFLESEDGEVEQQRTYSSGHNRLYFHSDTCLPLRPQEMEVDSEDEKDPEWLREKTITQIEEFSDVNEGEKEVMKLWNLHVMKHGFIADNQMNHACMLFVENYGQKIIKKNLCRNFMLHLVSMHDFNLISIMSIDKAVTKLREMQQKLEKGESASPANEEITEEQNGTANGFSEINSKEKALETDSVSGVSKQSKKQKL

[6] = system: human pancreatic cancer cells PANC-1 xenograft; experiment: In-vivo growth of PANC-1 xenografts in nude mice; parameters: species or system BALB/c nude mice; details: Mus musculus, ip, vs DMSO solvent control, read-out: Curative effect (inhibition rate %) of tumor weight; for inhibition in vivo at 60 mg/kg: 60 mg/kg intraperitoneal once a day; for inhibition in vivo at 90 mg/kg: 90 mg/kg intraperitoneal once a day
Experimental: as §11, §12, §13

[7] = system: human lung cancer cells A549 xenograft; experiment: In-vivo growth of A549 xenografts in nude mice; parameters: species or system BALB/c nude mice; details: Mus musculus, ip, vs DMSO solvent control, read-out: Curative effect (inhibition rate %) of tumor weight; for inhibition in vivo at 60 mg/kg: 60 mg/kg intraperitoneal once a day; for inhibition in vivo at 90 mg/kg: 90 mg/kg intraperitoneal once a day
Experimental: as §11, §12, §13

[8] = system: Bcl-2/Bax; experiment: Western Blotting, Bcl-2/Bax level; type: cell-based; details: human liver cancer cells, Lewis lung cancer cells and other cancer cell lines and tumor tissues, read-out: Effective concentration (IC50) for inhibition of Bcl-2/Bax
From the text: (§14) Antibodies: primary antibodies of VEGFR, EGFR, c-Met, K-Ras, H-Ras, Akt, NF-κB, Cyclin D1, ER-alpha, Dvl-1, Dvl-2, Dvl-3, MMP-9, MMP2, β-catenin, Bcl-2, Bax, p53, p21, E-cadherin and Caspase3 protein, purchased from American Cell Signaling Technology Company and Santa Cruz Technology Company; and H3 acetylation, H4 acetylation and HDAC (HDAC3, HDAC4 and the like) Antibody Sample Kits, purchased from Cell Signaling Technology Company of the U.S.
(§15) (3) polyacrylamide gel electrophoresis (SDS-PAGE): an equal amount of protein lysate sample was used to separate protein, film transfer, and blocking, treated with appropriate primary antibodies and secondary antibodies in sequence, and the film was washed, then the color was developed with ECL kit, and a blot protein band was detected by exposure of an X-ray film; and a Gel-Pro Analyzer was used for quantitative analysis of gray degree, optical density value of the control group and the drug treatment group in various concentration were respectively compared with that of internal reference, the obtained ratios were respectively compared with the control group, and the protein expression level was semi-quantified.

[9] = system: human oral epidermoid cancer cells KBV200; experiment: MTT growth inhibition, KBV200 cells; type: cell-based; details: 72 h after treatment, read-out: Drug concentration (IC50) at which 50% cancer cells survived
From the text: as §1, §2, §3, §4, §5, §6, §7, §8, §9, §10

[10] = system: p21; experiment: Western Blotting, increase of p21 level; type: cell-based; details: liver cancer cells, Lewis lung cancer cells and other cancer cell lines and tumor tissue protein lysates, 48 h treatment, read-out: Effective concentration to increase p21 by 50%
From the text: as §14, §15

Row | Compound | IC50 [1] [µM] | inhibition in vivo at 60 mg/kg [2] [%] | inhibition in vivo at 90 mg/kg [2] [%] | IC50 [3] [µM] | inhibition in vivo at 60 mg/kg [4] [%] | inhibition in vivo at 90 mg/kg [4] [%] | decrease of EZH2 enzyme activity/inhibition rate ([5]; A549 tumor grown in vivo) | decrease of EZH2 enzyme activity/inhibition rate ([5]; MCF7 tumor grown in vivo) | decrease of EZH2 enzyme activity/inhibition rate ([5]; MDA-MB231 tumor grown in vivo) | decrease of EZH2 enzyme activity/inhibition rate ([5]; SMMC7721 tumor grown in vivo) | inhibition in vivo at 60 mg/kg [6] [%] | inhibition in vivo at 90 mg/kg [6] [%] | inhibition in vivo at 60 mg/kg [7] [%] | inhibition in vivo at 90 mg/kg [7] [%] | IC50 [8] [µM] | IC50 [9] [µM] | EC50 [10] [µM]
1 | CCNC(=O)CCC(NC(=O)c1cc2cc(F)ccc2oc1=O)C(=O)OCC (stereo in doubt) [Compound Ie, (R)-2-(6-F-2-oxo-2H-benzopyran-3-carboxamido)-5-ethylamino-5-oxo-pentanoic acid ethyl ester] | 150 | 50.9 | 60.9 | 90 | 61.6 | 70.8 | 58%*(A549)- | 62%*(MCF7) | 59%*(MDA-MB231) | 56%*(SMMC7721); | 56.6 | 64.6 | 55.5 | 61.5 | < 180 | 210 | < 100
2 | CCNC(=O)CCC(NC(=O)c1cc2cc([N+](=O)[O-])ccc2oc1=O)C(=O)OCC (stereo in doubt) [Compound If, (R)-2-(6-nitro-2-oxo-2H-benzopyran-3-carboxamido)-5-ethylamino-5-oxo-pentanoic acid ethyl ester] | 105 | 52.6 | 62.3 | 110 | 67.5 | 75.8 | 65%*(A549)- | 66%*(MCF7) | 63%*(MDA-MB231) | 64%*(SMMC7721); | 53.6 | 67.3 | 58.6 | 64.6 | < 90 | 102 | < 65
3 | CCNC(=O)CC[C@H](N)C(=O)OC [Compound IIa, theanine methyl ester] | 400 | 31.1 | 36.1 | 480 | 36.8 | 38.5 |  |  |  |  | 33.4 | 37.7 | 29.6 | 31.7 |  | 380 | 
4 | CCNC(=O)CC[C@H](N)C(=O)OCC [Compound IIb, theanine ethyl ester] | 300 | 44.5 | 47.8 | 400 | 52.3 | 54.7 |  |  |  |  | 32.3 | 34.8 | 33.3 | 38.6 |  | 300 | 
5 | CCNC(=O)CCC(NC(=O)c1cc2ccccc2oc1=O)C(=O)OC (stereo not drawn) [Compound Ia, methyl 5-ethylamino-5-oxo-2-(2-oxo-2H-benzopyran-3-carboxamido)pentanoate] | 160 | 50.1 | 60.1 | 240 | 55.4 | 60.9 |  |  |  | 54%*(SMMC-7721) | 55.8 | 60.5 | 48.6 | 51.6 | < 125 | 240 | < 125
6 | CCNC(=O)CCC(NC(=O)c1cc2ccccc2oc1=O)C(=O)OCC (stereo not drawn) [Compound Ib, ethyl 5-ethylamino-5-oxo-2-(2-oxo-2H-benzopyran-3-carboxamido)pentanoate] | 165 | 59.1 | 69.1 | 109 | 58.2 | 69.6 | 54%*(A549)- |  |  | 57%*(SMMC-7721) | 54.6 | 65.9 | 53.6 | 60.6 | < 120 | 136 | < 120
7 | CCNC(=O)CC[C@@H](NC(=O)c1cc2cc(Cl)ccc2oc1=O)C(=O)OCC [Compound Ic, (R)-2-(6-CI-2-oxo-2H-benzopyran-3-carboxamido)-5-ethylamino-5-oxo-pentanoic acid ethyl ester] | 98 | 54.1 | 65.5 | 87 | 74.2 | 79.2 | 61%*(A549)- | 56%*(MCF7) | 58%*(MDA-MB231) | 59%*(SMMC7721); | 56.5 | 66.7 | 61.6 | 67.6 | < 100 | 97 | < 100
